# Measurements from patent US20240174680A1, “CDK2 INHIBITORS AND METHODS OF USING THE SAME” (Cedilla Therapeutics, Inc., priority 2021, published 2024).
# pIC50: −log10 of the molar value.
# Biological target: CDK2/Cyclin E1 (Homo sapiens, UniProt P24941)
# Assay: CDK2/Cyclin E1 Caliper LabChip EZ Reader mobility shift assay
# Type: biochemical
# Parameters: purchased Eurofins 14-475
# Details: read-out: Caliper Assay (CDK2/CCNE1): IC50
# Method: Inhibition of CDK2/Cyclin E1 activity in the presence of compounds of the present disclosure was evaluated using a Caliper LabChip® EZ Reader mobility shift assay. In the assay, CDK2/Cyclin E1 (Eurofins, 14-475) catalyzed the phosphorylation of a fluorescently tagged peptide 5-FAM-QSPKKG-CONH2 (PerkinElmer, FL Peptide 18) which induced a difference in capillary electrophoresis mobility. The peptide substrate and product were measured, and the conversion ratio was used to determine the inhibition (as % activity and IC50 values) of CDK2/Cyclin E1. Reactions contained 50 mM HEPES pH 7.5, 10 mM MgCl2, 1 mM EDTA, 2 mM DTT, 0.01% Brij35, 0.5 mg/mL BSA, 0.1% DMSO, 2.5 nM CDK2/Cyclin E1, 100 μM ATP, and 1.5 μM fluorescent peptide substrate.
# Dose titrations of inhibitors in 100% DMSO were combined with 3.25 nM CDK2/Cyclin E1 and 130 μM of ATP in reaction buffer. The mixtures were incubated for 30 minutes before the addition of fluorescent peptide substrate to initiate the kinase reaction. The final conditions were 2.5 nM CDK2/Cyclin E1, 100 μM ATP, and 1.5 μM fluorescent peptide. The reactions were stopped after 100 minutes with the addition of EDTA (400 mM final EDTA concentration). The stopped reactions were analyzed on a Caliper LabChip® EZ Reader II. The conversion ratios were normalized to yield % activity, plotted against compound concentration, and fit to a four-parameter equation to determine the IC50 for each compound.
row,pIC50,Compound
1,≥ 8.00,C[C@@H](OCC1CCCCC1)[C@H](NC(=O)[C@@H]1CN(C(=O)c2cncs2)CC12CN(C(=O)[C@H]1CC1(C)C)C2)C(=O)N1CCC(c2cnc[nH]2)CC1 [I-406]
2,6.00 to 7.00,CNC(=O)[C@@H](NC(=O)[C@@H]1CN(C(=O)c2cnn(C)c2)CC12CN(C(=O)[C@H]1CC1(C)C)C2)[C@@H](C)OCc1ccccc1 [I-33A]
3,6.00 to 7.00,CNC(=O)C(NC(=O)[C@@H]1CN(C(=O)c2cncs2)CC12CN(C(=O)[C@H]1CC1(C)C)C2)c1ncc(C2CCCCC2)o1 (stereo partly shown) [I-426]
4,≥ 8.00,"C[C@@H](OCC12CCC(CC1)OC2)[C@H](NC(=O)[C@@H]1CN(C(=O)c2cncs2)CC12CN(C(=O)[C@H]1CC1(C)C)C2)C(=O)N1CCC(C(F)(F)F)CC1 [I-454, (S)—N-((2S,3R)-3-((2-oxabicyclo[2.2.2]octan-4-yl)methoxy)-1-oxo-1-(4-(trifluoromethyl)piperidin-1-yl)butan-2-yl)-2-((S)-2,2-dimethylcyclopropane-1-carbonyl)-6-(thiazole-5-carbonyl)-2,6-diazaspiro[3.4]octane-8-carboxamide]"
5,≥ 8.00,COC[C@H]1CCCN(C(=O)[C@@H](NC(=O)[C@@H]2CN(C(=O)c3cncs3)CC23CN(C(=O)[C@H]2CC2(C)C)C3)[C@@H](C)OCc2cccc(F)c2)C1 [I-322]
6,≥ 8.00,C[C@@H](OCC12CCC(CC1)CC2)[C@H](NC(=O)[C@@H]1CN(C(=O)c2cncs2)CC12CN(C(=O)[C@H]1CC1(C)C)C2)C(C)(C)O [I-304]
7,< 5.00,"CNC(=O)[C@@H](NC(=O)[C@@H]1CN(C(=O)c2cnn(Cc3ccccc3)c2)CC12CN(C(=O)[C@H]1CC1(C)C)C2)[C@@H](C)N(CC1CCCCC1)C(C)=O [I-273, (S)-6-(1-benzyl-1H-pyrazole-4-carbonyl)-N-((2S,3R)-3-(N-(cyclohexylmethyl)acetamido)-1-(methylamino)-1-oxobutan-2-yl)-2-((S)-2,2-dimethylcyclopropane-1-carbonyl)-2,6-diazaspiro[3.4]octane-8-carboxamide]"
8,5.00 to 6.00,CNC(=O)[C@@H](NC(=O)[C@H]1CN(C(=O)c2cnn(Cc3ccccc3)c2)CC12CN(C(=O)[C@H]1CC1(C)C)C2)[C@@H](C)OCC1CCOCC1 [I-119B]
9,5.00 to 6.00,CNC(=O)[C@@H](NC(=O)[C@@H]1CN(C(=O)c2cnn(Cc3ccccc3)c2)CC12CN(C(=O)C1C(C)(C)C1(C)C)C2)[C@@H](C)OCc1ccccc1 [I-89A]
10,5.00 to 6.00,Cc1ccc(CNC(=O)[C@@H]2CN(C(=O)c3cnn(Cc4ccccc4)c3)CC23CN(C(=O)[C@H]2CC2(C)C)C3)cc1 [I-363]
11,≥ 8.00,C[C@@H](OCC1CCC(F)(F)CC1)[C@H](NC(=O)[C@@H]1CN(C(=O)c2cncs2)CC12CN(C(=O)[C@H]1CC1(C)C)C2)C(=O)N1CCC2(CC1)COC2 [I-335]
12,5.00 to 6.00,CNC(=O)[C@@H](NC(=O)[C@H]1CN(C(=O)c2cnc(CC3CC3)s2)CC12CN(C(=O)[C@H]1CC1(C)C)C2)[C@@H](C)OCC1CCCCC1 [I-177B]
13,7.00 to 8.00,CNC(=O)[C@@H](NC(=O)[C@@H]1CN(C(=O)c2sc(COC)nc2C)CC12CN(C(=O)[C@H]1CC1(C)C)C2)[C@@H](C)OCC1CCCCC1 [I-162A]
14,< 5.00,CNC(=O)[C@@H](NC(=O)[C@H]1CN(Cc2ccncc2)CC12CN(C(=O)[C@H]1CC1(C)C)C2)[C@@H](C)OCc1ccccc1 [I-55B]
15,< 5.00,CNC(=O)[C@@H](NC(=O)[C@H]1CN(C(=O)c2cncs2)CC12CN(C(=O)C(C)(C)C)C2)[C@@H](C)OCC1CCCCC1 [I-186B]
16,6.00 to 7.00,CNC(=O)[C@@H](NC(=O)[C@@H]1CN(C(=O)c2cncs2)CC12CN(C(=O)[C@H]1CC1(C)C)C2)[C@@H](C)OC1CCCCC1 [I-290]
17,< 5.00,CNC(=O)[C@@H](NC(=O)[C@H]1CN(C(=O)c2cnn(CC3CC3)c2)CC12CN(C(=O)CC1CC1)C2)[C@@H](C)OCc1ccccc1 [I-53B]
18,5.00 to 6.00,C[C@@H](OCC1CCCCC1)[C@H](NC(=O)C1CN(C(=O)C2CCC(=O)N(C)C2)CC12CN(C(=O)[C@H]1CC1(C)C)C2)C(=O)N1CCCCC1 (stereo partly shown) [I-242]
19,7.00 to 8.00,CNC(=O)[C@@H](NC(=O)[C@@H]1CN(C(=O)c2cncs2)CC12CN(C(=O)C(C)(C)C)C2)[C@@H](C)OCC1CCCCC1 [I-186A]
20,7.00 to 8.00,CC1(C)C[C@@H]1C(=O)N1CC2(CN(C(=O)c3cncs3)C[C@H]2C(=O)NCc2cccc(C3CCCCC3)n2)C1 [I-414]
21,< 5.00,CNC(=O)[C@@H](NC(=O)[C@@H]1CN(C(=O)c2cnn(Cc3ccccc3)c2)CC12CN(C(=O)C1(CC3CC3)CC1)C2)[C@@H](C)OCc1ccccc1 [I-116A]
22,6.00 to 7.00,CNC(=O)[C@@H](NC(=O)[C@@H]1CN(C(=O)c2cnn(Cc3ccccc3)c2)CC12CN(C(=O)[C@H]1CC1(C)C)C2)[C@@H](C)SCc1ccccc1 [I-368]

row,pIC50,Compound
1,< 5.00,CNC(=O)[C@@H](NC(=O)[C@H]1CN(C(=O)c2cnn(C)c2)CC12CN(C(=O)[C@H]1CC1(C)C)C2)[C@@H](C)OCc1ccccc1 [I-33B]
2,5.00 to 6.00,CNC(=O)[C@@H](NC(=O)[C@@H]1CN(C(=O)c2n[nH]c3ccccc23)CC12CN(C(=O)[C@H]1CC1(C)C)C2)[C@@H](C)OCc1ccccc1 [I-112A]
3,5.00 to 6.00,CC1(C)C[C@@H]1C(=O)N1CC2(CN(C(=O)c3cnn(Cc4ccccc4)c3)C[C@H]2C(=O)N[C@H]2CCc3cc(Cl)ccc32)C1 [I-133A]
4,6.00 to 7.00,CNC(=O)[C@@H](NC(=O)[C@@H]1CN(C(=O)c2cnn(Cc3ccccc3)c2)CC12CN(C(=O)C(C)(C)F)C2)[C@@H](C)OCc1ccccc1 [I-90A]
5,6.00 to 7.00,CNC(=O)C(NC(=O)[C@@H]1CN(C(=O)c2cncs2)CC12CN(C(=O)[C@H]1CC1(C)C)C2)c1nc(C2CCCCC2)co1 (stereo partly shown) [I-425]
6,5.00 to 6.00,C[C@@H](OCC1CCCCC1)[C@H](NC(=O)C1CN(C(=O)C2CCC(=O)NC2)CC12CN(C(=O)[C@H]1CC1(C)C)C2)C(=O)N1CCCCC1 (stereo partly shown) [I-265]
7,< 5.00,CC1(C)C[C@@H]1C(=O)N1CC2(CN(C(=O)c3cnn(Cc4ccccc4)c3)C[C@@H]2C(=O)N[C@H]2C[C@@H]2c2cccc(Cl)c2)C1 [I-140B]
8,5.00 to 6.00,Cc1n[nH]c(C(=O)N2C[C@@H](C(=O)N[C@H](C(=O)N3CCCCC3)[C@@H](C)OCC3CCCCC3)C3(C2)CN(C(=O)[C@H]2CC2(C)C)C3)n1 [I-241]
9,< 5.00,CNC(=O)[C@@H](NC(=O)[C@H]1CN(C(=O)c2cnn(Cc3ccccc3)c2)CC12CN(C(=O)CC(F)(F)F)C2)[C@@H](C)OCc1ccccc1 [I-87B]
10,< 5.00,CNC(=O)[C@@H](NC(=O)[C@@H]1CN(C(=O)Cc2cnn(Cc3ccccc3)c2)CC12CN(C(=O)[C@H]1CC1(C)C)C2)[C@@H](C)OCc1ccccc1 [I-373]
11,< 5.00,CNC(=O)[C@@H](NC(=O)[C@@H]1CN(C(=O)c2cncs2)CC12CN(C(=O)[C@H]1CC1(C)C)C2)[C@H](O)CC1CCCCC1 [I-379]
12,6.00 to 7.00,"CNC(=O)[C@@H](NC(=O)[C@@H]1CN(C(=O)c2cnn(Cc3ccccc3)c2)CC12CN(C(=O)[C@H]1CC1(C)C)C2)C(C)(C)S(=O)(=O)Cc1ccccc1 [I-199, (S)-6-(1-benzyl-1H-pyrazole-4-carbonyl)-N—((R)-3-(benzylsulfonyl)-3-methyl-1-(methylamino)-1-oxobutan-2-yl)-2-((S)-2,2-dimethylcyclopropane-1-carbonyl)-2,6-diazaspiro[3.4]octane-8-carboxamide]"
13,5.00 to 6.00,CNC(=O)C(NC(=O)[C@@H]1CN(C(=O)c2cncs2)CC12CN(C(=O)[C@H]1CC1(C)C)C2)c1cccc(N2CC3(COC3)C2)n1 (stereo partly shown) [I-427]
14,7.00 to 8.00,"C[C@@H](OCc1ccccc1)[C@H](NC(=O)C1CN(C(=O)c2cnn(Cc3ccccc3)c2)CC12CN(C(=O)[C@H]1CC1(C)C)C2)C(=O)N1CCCCC1 (stereo partly drawn) [I-97, 6-(1-benzyl-1H-pyrazole-4-carbonyl)-N-((2S,3R)-3-(benzyloxy)-1-oxo-1-(piperidin-1-yl)butan-2-yl)-2-((S)-2,2-dimethylcyclopropanecarbonyl)-2,6-diazaspiro[3.4]octane-8-carboxamide]"
15,5.00 to 6.00,CC1(C)C[C@@H]1C(=O)N1CC2(CN(C(=O)c3cncs3)C[C@@H]2C(=O)N[C@@H](COCC2CCCCC2)C(=O)N2CCCCC2)C1 [I-293]
16,< 5.00,CO[C@@H]1CC[C@H](NC(=O)[C@@H]2CN(C(=O)c3cnn(Cc4ccccc4)c3)CC23CN(C(=O)[C@H]2CC2(C)C)C3)C1 [I-248]
17,≥ 8.00,CCOC(=O)C(C)(C)CNC(=O)[C@@H](NC(=O)[C@@H]1CN(C(=O)c2cnn(Cc3ccccc3)c2)CC12CN(C(=O)[C@H]1CC1(C)C)C2)[C@@H](C)OCC1CCCCC1 [I-473]
18,< 5.00,CNC(=O)[C@@H](NC(=O)[C@@H]1CN(C(=O)c2scnc2C(F)(F)F)CC12CN(C(=O)[C@H]1CC1(C)C)C2)[C@@H](C)OCC1CCCCC1 [I-163A]
19,7.00 to 8.00,C[C@@H](OCC1CCCCC1)[C@@H](CO)NC(=O)[C@@H]1CN(C(=O)c2cnn(Cc3ccccc3)c2)CC12CN(C(=O)[C@H]1CC1(C)C)C2 [I-135A]
20,< 5.00,CCCCC1CC1C(=O)N1CC2(CN(C(=O)c3cnn(Cc4ccccc4)c3)C[C@H]2C(=O)N[C@H](C(=O)NC)[C@@H](C)OCc2ccccc2)C1 (stereo partly shown) [I-94A]
21,< 5.00,CNC(=O)[C@@H](NC(=O)C1CN(Cc2n[nH]c3ccccc23)CC12CN(C(=O)[C@H]1CC1(C)C)C2)[C@@H](C)OCc1ccccc1 (stereo partly shown) [I-159]
